What was measured:
[1] = target: T1, human sphingosine-1-phosphate receptor 1 (S1P1) (Homo sapiens, UniProt P21453); test: Inhibition of cAMP production (HTRF cAMP HiRange), S1P1 CHO-K1 cells; assay type: cell-based; conditions: for Emax: CHO-K1, efficacy normalized to maximum efficacy of fingolimod, read-out: hS1P1 CAMP SPAN; for EC50: read-out: hS1P1 CAMP pEC50 (converted)
Summary of the method: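 Intracellular cAMP changes read by TR-FRET (HTRF HiRange, 1 h room temperature) after 30 min compound exposure at 37 °C. Cells: overnight-plated CHO-K1 stably expressing tagged human S1P1 with EA-β-arrestin2. Responses normalized to fingolimod.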
Target sequence in this assay (P21453 whole entry): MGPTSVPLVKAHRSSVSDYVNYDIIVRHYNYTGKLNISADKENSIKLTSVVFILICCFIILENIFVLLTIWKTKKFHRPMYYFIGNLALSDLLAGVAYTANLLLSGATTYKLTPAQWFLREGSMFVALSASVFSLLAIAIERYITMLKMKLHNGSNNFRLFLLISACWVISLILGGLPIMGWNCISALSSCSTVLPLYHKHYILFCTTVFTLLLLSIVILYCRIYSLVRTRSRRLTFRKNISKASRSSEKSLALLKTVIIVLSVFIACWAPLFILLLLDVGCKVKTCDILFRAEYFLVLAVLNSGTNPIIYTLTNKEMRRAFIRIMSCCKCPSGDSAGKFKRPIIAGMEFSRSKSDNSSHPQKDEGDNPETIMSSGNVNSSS

[2] = target: T1, human sphingosine-1-phosphate receptor 1 (S1P1); test: β-Arrestin2 recruitment assay (PathHunter), S1P1 CHO-K1 cells; assay type: cell-based; conditions: for Emax: efficacy normalized to maximum efficacy of fingolimod, read-out: hS1P1 B-arrestin2 SPAN; for EC50: β-arrestin2 recruitment, read-out: hS1P1 B-arrestin2 pEC50 (converted)
Summary of the method: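 Agonist-driven β-arrestin2 recruitment measured by β-galactosidase complementation after 60 min compound exposure at 37 °C and 1 h detection at room temperature. Cells: stable CHO-K1 line expressing tagged human S1P1 with EA-β-arrestin2, plated the night before. Data expressed relative to fingolimod.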
Target sequence in this assay (P21453 whole entry): as above
Target sequence in this assay (P32121 whole entry partner): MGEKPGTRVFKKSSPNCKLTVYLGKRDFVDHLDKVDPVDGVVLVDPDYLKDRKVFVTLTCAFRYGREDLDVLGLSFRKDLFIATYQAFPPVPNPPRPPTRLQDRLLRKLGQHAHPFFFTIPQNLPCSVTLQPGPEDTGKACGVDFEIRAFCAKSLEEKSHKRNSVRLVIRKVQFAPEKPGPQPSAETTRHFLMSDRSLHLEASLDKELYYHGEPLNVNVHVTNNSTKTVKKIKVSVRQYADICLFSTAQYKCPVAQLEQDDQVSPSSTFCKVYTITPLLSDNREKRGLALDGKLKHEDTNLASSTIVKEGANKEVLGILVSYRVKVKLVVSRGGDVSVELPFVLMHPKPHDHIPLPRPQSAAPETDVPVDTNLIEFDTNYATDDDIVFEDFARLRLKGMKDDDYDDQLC

[3] = target: human sphingosine-1-phosphate receptor 2 (S1P2) (Homo sapiens, UniProt O95136); test: Selectivity: inositol monophosphate production (IP-one), S1P2 CHO-K1 cells; assay type: cell-based; conditions: for Emax: CHO-K1, efficacy normalized to maximal efficacy of CYM5520, read-out: hS1P2 IP-one SPAN; for EC50: inositol monophosphate accumulation, read-out: hS1P2 IP-one pEC50 (converted)
human sphingosine-1-phosphate receptor 2 (S1P2), sequence (O95136 whole entry): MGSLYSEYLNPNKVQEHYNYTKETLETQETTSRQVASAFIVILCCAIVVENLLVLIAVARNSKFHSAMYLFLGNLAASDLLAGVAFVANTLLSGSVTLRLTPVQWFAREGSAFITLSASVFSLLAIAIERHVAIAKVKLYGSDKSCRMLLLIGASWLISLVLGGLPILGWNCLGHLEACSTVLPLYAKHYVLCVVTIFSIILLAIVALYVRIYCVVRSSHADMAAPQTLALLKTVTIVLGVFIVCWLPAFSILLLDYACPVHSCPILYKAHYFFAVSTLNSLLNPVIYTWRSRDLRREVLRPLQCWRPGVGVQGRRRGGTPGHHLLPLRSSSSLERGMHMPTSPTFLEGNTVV
Procedure: (§1) Cell Culturing and Assay Plating Cell lines were cultured in AssayComplete™ Media 6 (DiscoverX Corporation, Cat #: 920018GF2) at 37° C. and 5% CO2 in a humidified CO2 and temperature-controlled incubator. To begin assay plating, cells were washed with Dulbecco's phosphate buffered saline (CellGro, Cat #: 21-031-CV) and lifted from the culturing flask by incubation (37° C., 5 min) with CellStripper (Cellgro, Cat #: 25-056-CI). […] Plated cells were incubated overnight at 37° C. and 5% CO2 in a humidified CO2 and temperature-controlled incubator. Detecting Inhibition of cAMP Production
S1P2 Agonist-promoted G-protein responses were determined by measuring changes in intracellular inositol monophosphate using the IP-one TB kit (CisBio, Cat #: 62IPAPEJ) based on time-resolved fluorescence resonance energy transfer (TR-FRET) technology. AssayComplete™ Cell Plating 2 Reagent was removed and replaced with 1× IP-one stimulation buffer (as per manufacturer's instructions) along with test or control compounds at the desired concentrations.
Following a 60-minute incubation at 37° C. and 5% CO2 in a humidified CO2 and temperature-controlled incubator, the components of the IP-one TB kit were added as per the manufacturer's instructions. After an hour incubation at room temperature, plates were analyzed by a BMG PheraStar microplate reader.
(§2) These values are normalized to fimgolimod, a known agonist of the sphingosine-1-phosphate 3 and 5 receptor or CYM5520, a known agonist of the sphingosine-1-phosphate 2 receptor. The tables also include potency values (pEC50) for modulating discrete receptor-mediated activities (inhibition of cAMP production or inositol monophosphate accumulation).

[4] = target: human sphingosine-1-phosphate receptor 3 (S1P3) (Homo sapiens, UniProt Q99500); test: Selectivity: inhibition of cAMP production (HTRF), S1P3 CHO-K1 cells; assay type: cell-based; conditions: for Emax: CHO-K1, efficacy normalized to maximal efficacy of fimgolimod, read-out: hS1P3 cAMP SPAN; for EC50: inhibition of cAMP production, read-out: hS1P3 cAMP pEC50 (converted)
human sphingosine-1-phosphate receptor 3 (S1P3), sequence (Q99500 whole entry): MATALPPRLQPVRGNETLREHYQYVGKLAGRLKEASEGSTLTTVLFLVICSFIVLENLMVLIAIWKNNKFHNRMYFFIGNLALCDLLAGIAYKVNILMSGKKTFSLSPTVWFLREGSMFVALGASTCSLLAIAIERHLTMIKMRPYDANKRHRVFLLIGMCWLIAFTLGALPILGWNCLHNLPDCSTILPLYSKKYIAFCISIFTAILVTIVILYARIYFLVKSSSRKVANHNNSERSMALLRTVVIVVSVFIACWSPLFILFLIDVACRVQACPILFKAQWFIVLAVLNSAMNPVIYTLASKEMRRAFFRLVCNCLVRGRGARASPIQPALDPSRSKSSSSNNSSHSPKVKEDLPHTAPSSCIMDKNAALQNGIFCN
Procedure: as §1
(§3) S1P3 and S1P5 Agonist-promoted G-protein responses were determined by measuring changes in intracellular cAMP using the HTRF® cAMP HiRange kit (CisBio, Cat #: 62AM6PEJ) based on time-resolved fluorescence resonance energy transfer (TR-FRET) technology. […] Following a 30-minute room temperature incubation the components of the cAMP HiRange kit were added as per the manufacturer's instructions. After an hour incubation at room temperature, plates were analyzed by a BMG PheraStar microplate reader.
as §2

[5] = target: sphingosine-1-phosphate receptor 5 (S1P5) (Homo sapiens, UniProt Q9H228); test: Selectivity: inhibition of cAMP production (HTRF), S1P5 CHO-K1 cells; assay type: cell-based; conditions: for Emax: CHO-K1, efficacy normalized to maximal efficacy of fimgolimod, read-out: hS1P5 cAMP SPAN; for EC50: inhibition of cAMP production, read-out: hS1P5 cAMP pEC50 (converted)
sphingosine-1-phosphate receptor 5 (S1P5), sequence (Q9H228 whole entry): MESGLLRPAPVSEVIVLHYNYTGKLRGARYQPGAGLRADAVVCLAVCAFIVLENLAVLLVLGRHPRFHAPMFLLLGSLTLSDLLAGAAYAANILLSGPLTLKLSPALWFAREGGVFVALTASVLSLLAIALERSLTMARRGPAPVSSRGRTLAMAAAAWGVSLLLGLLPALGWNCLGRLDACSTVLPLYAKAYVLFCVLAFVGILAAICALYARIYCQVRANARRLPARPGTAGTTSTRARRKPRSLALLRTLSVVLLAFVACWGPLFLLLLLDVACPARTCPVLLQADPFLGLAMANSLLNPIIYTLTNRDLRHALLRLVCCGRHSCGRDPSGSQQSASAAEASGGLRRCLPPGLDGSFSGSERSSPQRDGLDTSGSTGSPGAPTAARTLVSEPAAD
Procedure: as §1, §3, §2

[6] = system: peripheral blood lymphocytes; test: Lymphopenia: peripheral blood lymphocyte counts, acute and chronic s.c. dosing; assay type: in vivo; conditions: c57bl/6 mice
Procedure: Compounds were tested for changes in peripheral blood lymphocytes in C57bl/6 mice. In acute studies, animals (n=5/group) were dosed subcutaneously with test compound at a dose of 3 mg/kg. Animals were sacrificed at specific time points and […] of whole blood was collected in EDTA (K2) Eppendorf tubes. Blood was stored on ice and shipped immediately overnight delivery to Charles River Laboratories for analysis. CRL ran samples through their WBC/differential panel on an Advia 120 instrument. We received peripheral lymphocyte counts (10^3 cells/μl) for each blood sample. Treatment group means were compared to a vehicle treatment group for statistical significance. In chronic studies, animals (n=6-8/group) were dosed subcutaneously for three to seven days with test compound at doses that were at least 5-fold higher than the efficacious dose in pharmacology/behavioral assays. On the last day, animals were sacrificed 45 minutes to 6 hrs after the final dose. Whole blood was collected and analyzed as described for acute studies. […]

[7] = system: Corneal Kindled Seizure Model; test: Corneal Kindled Seizure Model (CKM), mouse; assay type: in vivo; design: key to Average Seizure Scores: seizure stage score; Stage 5 = rearing and falling, generalized clonic seizure
Procedure: Compounds are tested for efficacy in Corneal Kindled Seizure Model (CKM) Mouse. The pharmacological profile of the corneal kindled mouse is consistent with human partial epilepsy and effectively identifies the anticonvulsant potential of useful compounds for this condition, such as levetiracetam. Male C57BL/6 mice are kindled electrically with 3 sec stimulation, 3 mA, 60 Hz, and corneal electrodes to a criterion of 5 consecutive Stage 5 seizures (facial clonus and head nodding progressing to forelimb clonus, and finally rearing and falling accompanied by a generalized clonic seizure). After receiving twice daily corneal stimulations, mice typically reach the first Stage 5 seizure between approximately 10-14 days. […] Fully kindled mice are then stimulated every-other day until all other mice within the group reach the criterion of 5 consecutive Stage 5 seizures. Any mouse not achieving the fully kindled state is not included in any evaluation of investigational compounds. Testing of investigational compounds commences at least 5-7 days after the last stimulation. Mice are stimulated on the day prior to any drug evaluation to ensure that all mice to be used in the drug study will present with a Stage 5 seizure. […] After testing, the corneal kindled animals are returned to their home cage. Unlike the acute seizure tests conducted by the ETSP, each corneal kindled mouse is allowed at least 3-4 days between tests to “washout” any investigational compound after testing. Compound 469 was tested in the method described in Example 5. The data for Compound 469 is illustrated in Tables 1-4.

hERG channel = hERG channel (Homo sapiens, UniProt Q12809); test: cell-based
hERG channel, sequence (Q12809 whole entry): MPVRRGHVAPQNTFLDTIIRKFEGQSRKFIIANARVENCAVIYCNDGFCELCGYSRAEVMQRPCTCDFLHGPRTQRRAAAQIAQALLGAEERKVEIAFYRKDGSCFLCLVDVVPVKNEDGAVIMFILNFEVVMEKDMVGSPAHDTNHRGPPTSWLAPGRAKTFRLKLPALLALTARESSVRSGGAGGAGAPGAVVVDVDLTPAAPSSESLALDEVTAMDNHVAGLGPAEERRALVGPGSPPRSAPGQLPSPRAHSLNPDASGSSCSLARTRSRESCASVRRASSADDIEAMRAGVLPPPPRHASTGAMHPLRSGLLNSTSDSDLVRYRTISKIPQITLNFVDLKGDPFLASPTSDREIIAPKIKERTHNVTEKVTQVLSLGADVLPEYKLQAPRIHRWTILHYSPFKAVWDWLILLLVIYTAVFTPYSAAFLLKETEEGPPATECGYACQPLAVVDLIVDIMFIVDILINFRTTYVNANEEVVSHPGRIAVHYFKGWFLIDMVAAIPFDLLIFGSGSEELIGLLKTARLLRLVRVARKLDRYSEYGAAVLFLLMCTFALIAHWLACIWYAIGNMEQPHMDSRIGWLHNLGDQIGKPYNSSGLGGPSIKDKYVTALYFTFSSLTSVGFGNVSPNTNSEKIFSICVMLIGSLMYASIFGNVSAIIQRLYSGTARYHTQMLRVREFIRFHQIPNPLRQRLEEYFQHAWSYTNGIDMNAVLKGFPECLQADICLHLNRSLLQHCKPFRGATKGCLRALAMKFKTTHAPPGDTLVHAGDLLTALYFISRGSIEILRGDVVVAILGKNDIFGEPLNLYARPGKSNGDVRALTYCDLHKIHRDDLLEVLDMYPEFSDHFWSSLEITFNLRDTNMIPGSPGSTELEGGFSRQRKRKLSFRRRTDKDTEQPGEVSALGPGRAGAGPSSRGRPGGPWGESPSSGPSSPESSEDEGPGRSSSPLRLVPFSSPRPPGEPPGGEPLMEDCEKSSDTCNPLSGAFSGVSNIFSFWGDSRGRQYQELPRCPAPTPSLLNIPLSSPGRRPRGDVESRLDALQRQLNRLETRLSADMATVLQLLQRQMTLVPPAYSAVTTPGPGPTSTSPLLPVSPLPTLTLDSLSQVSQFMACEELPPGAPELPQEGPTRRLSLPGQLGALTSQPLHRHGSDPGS

[8] = inhibition of cAMP production, potency
[9] = CHO-K1, β-arrestin2 recruitment
[10] = inhibition of cAMP production, S1P1
[11] = 3 mg/kg s.c., 0.5 hour, Experiment 1
[12] = 3 mg/kg s.c., 1 hour, Experiment 1
[13] = 5 mg/kg s.c., 0.5 hour, Experiment 1
[14] = 5 mg/kg s.c., 1 hour, Experiment 1

CC(C)n1nnc2cc(-c3nc(-c4cccc5c4OCO5)no3)ccc21 [Compound 32, 3-(benzo[d][1,3]dioxol-4-yl)-5-(1-isopropyl-1H-benzo[d][1,2,3]triazol-5-yl)-1,2,4-oxadiazole]
Emax ([1]; inhibition of cAMP production): > 75% | EC50 [1, 8]: < 0.316 µM | Emax [2, 9]: < 75% | EC50 ([2]; potency): < 10 µM | Emax [3]: < 50% | EC50 [3]: > 10 µM | Emax [4]: < 50% | EC50 [4]: > 10 µM | Emax [5]: < 50% | EC50 [5]: > 10 µM | Lymphopenia effect (peripheral blood lymphocytes) ([6]; 6 mg/kg sc, 7 days): no change: 6 mg/kg, 7 days

Cc1ccccc1-c1nc(-c2ccc3c(c2)nnn3C(C)C)no1 [Compound 99, 3-(1-isopropyl-1H-benzo[d][1,2,3]triazol-5-yl)-5-(o-tolyl)-1,2,4-oxadiazole]
Emax ([1]; inhibition of cAMP production): > 75% | EC50 [1, 8]: < 0.316 µM | Emax [2, 9]: > 75% | EC50 ([2]; potency): < 10 µM | Emax [3]: < 50% | EC50 [3]: > 10 µM | Emax [4]: < 50% | EC50 [4]: > 10 µM | Emax [5]: > 50% | EC50 [5]: > 10 µM | Lymphopenia effect (peripheral blood lymphocytes) ([6]; 6 mg/kg sc, 7 days): no change: 6 mg/kg, 7 days

COc1ccccc1-c1nc(-c2ccc3c(c2)nnn3C(C)C)no1 [Compound 287, 3-(1-isopropyl-1H-benzo[d][1,2,3]triazol-5-yl)-5-(2-methoxy-phenyl)-1,2,4-oxadiazole]
Emax ([1]; inhibition of cAMP production): > 75% | EC50 [1, 8]: < 0.316 µM | Emax [2, 9]: > 75% | EC50 ([2]; potency): < 10 µM | Emax [3]: < 50% | EC50 [3]: > 10 µM | Emax [4]: < 50% | EC50 [4]: > 10 µM | Emax [5]: < 50% | EC50 [5]: > 10 µM | Lymphopenia effect (peripheral blood lymphocytes) ([6]; 6 mg/kg sc, 7 days): no change: 6 mg/kg, 7 days

N#Cc1cc(-c2nc(-c3ccc4oc(=O)[nH]c4c3)no2)ccc1NCC1CC1 [Compound 423, 2-((cyclopropyl-methyl)amino)-5-(3-(2-oxo-2,3-dihydrobenzo[d]oxazol-5-yl)-1,2,4-oxadiazol-5-yl)benzonitrile]
Emax [1]: > 75% | EC50 [1, 10]: < 0.316 µM | Emax ([2]; CHO-K1): > 75% | EC50 ([2]; S1P1): < 10 µM | Emax [3]: < 50% | EC50 [3]: < 10 µM | Emax [4]: < 50% | EC50 [4]: < 10 µM | Lymphopenia effect (peripheral blood lymphocytes) ([6]; 6 mg/kg sc, 7 days): no change: 6 mg/kg, 7 days

CCC1(CC)CC(=O)c2cc(-c3nc(-c4cn[nH]c4)no3)ccc2O1 [Compound 469, 6-(3-(1H-pyrazol-4-yl)-1,2,4-oxadiazol-5-yl)-2,2-diethyl-chroman-4-one]
EC50 [1, 10]: < 0.316 µM | Average Seizure Scores ([7]; 1 mg/kg, 2 hrs, Experiment 2): 3.25 | N/F (number of animals protected / total number tested) ([7]; 1 mg/kg, 2 hrs, Experiment 2): 1/8 | Average Seizure Scores ([7]; 2.5 mg/kg, 2 hrs, Experiment 2): 3.38 | N/F (number of animals protected / total number tested) ([7]; 2.5 mg/kg, 2 hrs, Experiment 2): 2/8 | Average Seizure Scores [7, 11]: 4.5 | N/F (number of animals protected / total number tested) [7, 11]: 0/8 | Average Seizure Scores [7, 12]: 3.38 | N/F (number of animals protected / total number tested) [7, 12]: 1/8 | Average Seizure Scores [7, 13]: 4 | N/F (number of animals protected / total number tested) [7, 13]: 0/8 | Average Seizure Scores [7, 14]: 3.38 | N/F (number of animals protected / total number tested) [7, 14]: 1/8 | Average Seizure Scores ([7]; 5 mg/kg, 2 hrs, Experiment 2): 2.5 | N/F (number of animals protected / total number tested) ([7]; 5 mg/kg, 2 hrs, Experiment 2): 3/8 | Average Seizure Scores ([7]; 10 mg/kg, 1 hour): 2.38 | N/F (number of animals protected / total number tested) ([7]; 10 mg/kg, 1 hour): 2/8 | Average Seizure Scores ([7]; 10 mg/kg, 2 hrs): 0.63 | N/F (number of animals protected / total number tested) ([7]; 10 mg/kg, 2 hrs): 7/8 | effect on seizures ([7]; Corneal Kindled Seizure Model, mouse): can reduce seizures | ED50 ([7]; Corneal Kindled Seizure Model, mouse, 2 hrs time point): 6.2 mg/kg | Lymphopenia effect (peripheral blood lymphocytes) ([6]; 3.7 mg/kg sc, 3 days): no change: 3.7 mg/kg, 3 days

N#Cc1cc(-c2nc(-c3ccc4c(c3)NC(=O)C4)no2)ccc1NCC1CC1 [Compound 497, 2-((cyclopropyl-methyl)amino)-5-(3-(2-oxoindolin-6-yl)-1,2,4-oxadiazol-5-yl)benzonitrile]
Emax [1]: > 75% | EC50 [1, 10]: < 0.316 µM | Emax ([2]; CHO-K1): > 75% | EC50 ([2]; S1P1): < 10 µM | IC50 (hERG channel): > 10 µM

CC(C)Oc1ccc(-c2ncc(-c3cccnc3)cn2)cc1C#N [Compound 738, 2-isopropoxy-5-(5-(pyridin-3-yl)pyrimidin-2-yl)benzonitrile]
IC50 (hERG channel): > 10 µM

CC(C)Oc1ccc(-c2ncc(-c3ccccn3)cn2)cc1C#N [Compound 742, 2-isopropoxy-5-(5-(pyridin-2-yl)pyrimidin-2-yl)benzonitrile]
IC50 (hERG channel): > 10 µM

CC(C)Nc1ccc(-c2ncc(-c3ccnc(O)c3)cn2)cc1C#N [Compound 743, 5-(5-(2-hydroxy-pyridin-4-yl)pyrimidin-2-yl)-2-(isopropyl-amino)benzonitrile]
IC50 (hERG channel): > 10 µM

CC(C)Oc1ccc(-c2ncc(-c3ccnc(O)c3)cn2)cc1C#N [Compound 744, 5-(5-(2-hydroxy-pyridin-4-yl)pyrimidin-2-yl)-2-isopropoxy-benzonitrile]
IC50 (hERG channel): > 10 µM

— US20230114241A1, “METHODS OF TREATING EPILEPSY USING THE SAME” (Trevena, Inc., priority 2019, published 2023)
